Test results: paper PMC11938129, “Gravacin as an inhibitor of the auxin transport-activating protein kinase D6PK in Arabidopsis” (Frontiers in Plant Science, 2025)

Experiments:
D6PK (His-D6PK) [1] = molecular target: T1, D6PK (His-D6PK) (Arabidopsis thaliana, UniProt Q9FG74); experiment: in vitro kinase assay, […]ATP autoradiography of His-PIN1-HL phosphorylation; format: biochemical; conditions: partial, dose-dependent inhibition; substrate His-PIN1-HL; 10 mM ATP (so in the source), 10 mM MgCl2, 1 mM DTT, Tris-HCl pH 7.5, 25 °C, 60 min
T1 construct: His-tagged recombinant D6PK, expressed in E. coli BL21 (DE3), Ni-NTA purified
T1 sequence (Q9FG74 1-498): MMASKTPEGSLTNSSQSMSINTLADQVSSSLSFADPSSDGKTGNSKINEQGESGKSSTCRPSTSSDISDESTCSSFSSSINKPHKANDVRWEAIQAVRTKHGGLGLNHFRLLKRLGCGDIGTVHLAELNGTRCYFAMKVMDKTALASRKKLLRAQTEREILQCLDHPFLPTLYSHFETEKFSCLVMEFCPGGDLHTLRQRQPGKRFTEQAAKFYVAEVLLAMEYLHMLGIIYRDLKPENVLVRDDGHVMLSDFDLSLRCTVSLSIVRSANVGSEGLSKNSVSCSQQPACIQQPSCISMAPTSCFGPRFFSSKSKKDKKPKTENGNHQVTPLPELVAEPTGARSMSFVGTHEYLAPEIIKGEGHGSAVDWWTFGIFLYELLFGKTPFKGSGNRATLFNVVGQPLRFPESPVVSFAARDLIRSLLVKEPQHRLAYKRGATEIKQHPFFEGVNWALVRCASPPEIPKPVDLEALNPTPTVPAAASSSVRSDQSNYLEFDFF

D6PK (His-D6PK) [2] = molecular target: T1, D6PK (His-D6PK); experiment: surface plasmon resonance (Biacore 8K), steady state affinity model; format: binding

Kd (D6PK (His-D6PK) [2]): ~334 µM
SMILES: O=C(O)C=Cc1ccc(-c2ccc(Cl)c(Cl)c2)o1 [gravacin, 3-(5-[3,4-dichlorophenyl]-2-furyl)-acrylic acid]
in vitro kinase assay, [32P]ATP autoradiography of His-PIN1-HL phosphorylation (D6PK (His-D6PK) [1]): His-D6PK-induced phosphorylation of His-PIN1 was partially suppressed by gravacin in a dose-dependent manner
